Test results reported in US6984729B1, “Oligonucleotides specific for hepatitis B virus” (priority 1995, dated 2006).
Strand notation (5' to 3'): a small letter for the sugar, then the base; units joined by * are phosphorothioate-linked, units joined directly phosphodiester-linked; [ ] holds rarer units or linkages, { } end groups; capitals alone tell only the bases. d = 2'-deoxy (DNA)

Experiments:
[1] = test system: HBV genomes in the supernatants from HepG2.2.15 cells; experiment: Kinetic PCR HBV anti-viral assay on supernatants from HepG2.2.15 cells; format: cell-based, hepatitis B virus; conditions: copy number of HBV genomes in HepG2.2.15 supernatants, day 10
Protocol: In addition to Southern hybridizations, kinetic PCR was performed to assay the supernatants from the HepG2.2.15 cells. This procedure was carried out as described by Higuchi et al. (Biotechnol. (1993) 11:1026–1030). All PCRs were carried out with two sets of external controls which consisted of a dilution series of a known concentration of plasmid DNA that contained the HBV core gene amplified with the same primer set. These controls generated a standard curve that was used to calculate the copy number of HBV genomes in the supernatants from cells exposed to the various dilutions of compound.
The anti-viral assay was performed using HepG 2.2.15 cells (Sells et al. ([…]) Proc. Natl. Acad. Sci. (USA) 84:1005–1009) seeded at a density of 1×10^5 per well in 24 well plates. The cells were grown to confluence and allowed to stabilize for 2–3 days in RPMI media (supplemented with 10% fetal calf serum (FCS), 2 mM glutamine and penstrep (Life Technologies Ltd., Paisley, Scotland) prior to the addition of the oligonucleotide (defined as day 0). Six dilutions (10, 5, 1, 0.5, 0.1, and 0 μM) were set up in duplicate for each of the antisense oligonucleotides. In each assay run, the nucleoside analog, β-L-(2R,5S)-1,3 oxathiolanyl cytosine (3TC) (Glaxo, Greenford, U.K.) was included as positive control at 0.5, 0.1, 0.075, 0.05, and 0.01 and 0 μM in duplicate. Oligonucleotide was added to 1 ml of RPMI media (supplemented with 3% FCS, 2 mM glutamine and penstrep) at each of the indicated dilutions. At days 2, 4 and 7, the old media was removed and replaced with fresh media containing compound. At day 10, the supernatants were harvested, clarified by low speed centrifugation, prior to the addition of Triton X100 (Sigma, St. Louis, Mo.) and tri-n-butyl phosphate to give a final concentration of 1%. The samples were then heated to 70° C. for 20 minutes to disrupt the viral particles.
Following this treatment, the viral particles were subject to analysis by kinetic PCR. The primers RJ407 (SEQ ID NO:51) and RJ431 (SEQ ID NO:52) were used to detect a 205 bp fragment of the core gene. Kinetic PCR was performed essentially as described by Higuchi et al. (Biotechnol. (1993) 11:1026–1030). Briefly, the PCR reactions were set up under standard conditions except that ethidium bromide was included at a concentration of 4 μg/ml. […] A kinetic PCR analysis was performed by plotting the average intensity of fluorescence from each PCR sample after each annealing/extension cycle against the cycle number. The original template concentration can be calculated by utilizing a standard fluorescence curve generated by templates of known concentration.

[2] = test system: In vitro transcribed HBV RNA (adw strain); experiment: RNase H cleavage assay with contiguous oligodeoxynucleotide phosphorothioates (FIG. 2); format: biochemical, hepatitis B virus; conditions: end-labelled HBV RNA (adw), regions found with random 20mer library
Protocol: To determine whether an oligonucleotide of the invention is capable of successfully hybridizing to its target, an RNase H assay was performed (Frank et al. (1993) Proc. Int. Conf. Nucleic Acid Med. Applns. 1:4.14(abstract)). This assay is useful when a region of at least four contiguous nucleotides of the oligonucleotide is DNA and the target is RNA. Hybridization of the DNA portion of the oligonucleotide to the RNA target is identified by cleavage at that site by RNase H.
In vitro transcribed HBV RNA (adw strain) was probed for sites accessible to oligonucleotide hybridization using a randomized library of 20 base oligodeoxynucleotides (approximately […]). Hybridization to the RNA was detected by RNase H cleavage of the end-labelled transcript. Three regions were identified by this assay. One region was in the 5′ untranslated region, between 113 and 70 bases upstream from the core initiator, and two regions were in the coding regionfor core, between 78 and 174 bases downstream from the core initiator. Contiguous oligodeoxynucleotide phosphorothioates were prepared against these regions and their ability to activate RNase H cleavage of the transcript measured.
The plasmid pHBVE+was generated by subcloning a StuI, BamHI fragment from the plasmid pAM6 (ATCC Ac. No. 45020, American Type Culture Collection, Rockville, Md.), representing HBV subtype adw nt 1701-nt 34 (GenBank accession # V00866) (Ono et al. (1983) Nucleic Acids Res. 11:1747–1757), into pBluescript II SK(+) (Stratagene, La Jolla, Calif.). […]
In 9 μl 1× RNase H buffer (40 mM Tris-HCl pH 7.4, 4 mM MgCl2, 1 mM DTT), 20–100 nM labelled RNA and 100 nM oligonucleotides were preincubated for 15 min at 37° C. […] The reactions were quenched and analyzed as described above.
Quantitation of the cleavage products was performed using software supplied with the Phosphorimager (Molecular Dynamics, Sunnyvale, Calif., or Bio-Rad Laboratories, Hercules, Calif.). “Counts” were determined by drawing a box around the band of interest and subtracting the background determined with a box drawn nearby. […]

[3] = test system: HBV subtype ayw polymerase gene-luciferase fusion construct; experiment: Firefly luciferase reporter gene assay in stably transfected HepG2 cells (pol-luciferase fusion); format: cell-based; conditions: versus random 20mer PS negative control, FIG. 9
Protocol: Oligonucleotides targeted to the polymerase translation initiation region were also tested in mammalian cells using a firefly luciferase reporter gene assay. The 35 nucleotide region spanning the translation start site of the HBV ayw polymerase gene from nt 2294–2328 was cloned 5′ to, and in frame with, the entire open reading frame of the firefly luciferase gene in the plasmid pGLori, to produce the plasmid pGLpol (FIG. 10). Transcription of this pol-luciferase gene fusion was placed under the control of the cytomegalovirus early gene promoter. Expression of the pol-luciferase fusion in mammalian cells was quantified in a luminometer by addition of luciferin substrate and ATP cofactor to cell lysates. In all cellular antisense assays, a random sequence 20mer phosphorothioate oligonucleotide (random 20mer PS) was used as a negative control. […]
Stably transfected HepG2 cells were seeded into 96 well plates. […] Cells were washed twice with Dulbecco's phosphate-buffered saline (PBS) and lysed in 50 μl cell lysis buffer (Analytical Luminescence Laboratory, San Diego, Calif.). Luciferase activity was measured in 20 μl lysate using Analytical Luminescence Laboratory substrates in a MicroLumat LB 96 P luminometer (EG&G Berthold, Nashua, N.H.).

GAAAAAGTTGCATGGTGCTG (antisense dG*dA*dA*dA*dA*dA*dG*dT*dT*dG*dC*dA*dT*dG*dG*dT*dG*dC*dT*dG) [HBV44]
IC50 [1]: 700 nM | ability to activate RNase H cleavage of the transcript [2]: single peaks of activity

GAGGCGGTGTCTAGGAGATC (antisense dG*dA*dG*dG*dC*dG*dG*dT*dG*dT*dC*dT*dA*dG*dG*dA*dG*dA*dT*dC) [HBV57]
ability to activate RNase H cleavage of the transcript [2]: single peaks of activity

GATAGGGGCATTTGGTGGTC (phosphorothioate, further chemistry not given here) [HBVpol-2]
IC50 [1]: 3700 nM | antisense activity on luciferase expression [3]: had sequence-specific antisense activity

GCAGTATGGTGAGGTGAGCA (antisense dG*dC*dA*dG*dT*dA*dT*dG*dG*dT*dG*dA*dG*dG*dT*dG*dA*dG*dC*dA) [HBV41]
ability to activate RNase H cleavage of the transcript [2]: single peaks of activity

GGCATTTGGTGGTCTATAAG (antisense dG*dG*dC*dA*dT*dT*dT*dG*dG*dT*dG*dG*dT*dC*dT*dA*dT*dA*dA*dG) [HBVpol-1]
antisense activity on luciferase expression [3]: had sequence-specific antisense activity
